In ChEMBL document CHEMBL5512645, “A novel antimicrobial peptide with broad-spectrum and exceptional stability derived from the natural peptide Brevicidine” (Eur J Med Chem, 2024):
Converted amounts (≈) assume the structure as drawn. The source made the active and inactive calls. The calls are words filed in the database; no cut-off is given here.

Tests used:
[1] = system: Erythrocyte; test: Hemolytic activity in mouse red blood cell assessed as hemolysis incubated for 1 hr; assay type: toxicity, cell-based
[2] = system: Staphylococcus aureus; test: Antibacterial activity against Staphylococcus aureus ATCC 25923 assessed as fold increase in MIC pretreated with Zncl2 followed by compound addition and measured after 2 hrs by broth microdilution method; assay type: functional
[3] = system: Acinetobacter baumannii; test: Antibacterial activity against Acinetobacter baumannii ATCC 19606 incubated for 18 to 24 hrs by broth microdilution method; assay type: functional; conditions: time 18-24 hrs
[4] = system: Staphylococcus epidermidis; test: Antibacterial activity against Staphylococcus epidermidis ATCC 12228 incubated for 18 to 24 hrs by broth microdilution method; assay type: functional; conditions: time 18-24 hrs
[5] = system: Pseudomonas aeruginosa; test: Antibacterial activity against Pseudomonas aeruginosa ATCC 27853 incubated for 18 to 24 hrs by broth microdilution method; assay type: functional; conditions: time 18-24 hrs
[6] = system: Bacillus subtilis; test: Antibacterial activity against Bacillus subtilis ATCC 23857 incubated for 18 to 24 hrs by broth microdilution method; assay type: functional; conditions: time 18-24 hrs
[7] = system: Staphylococcus aureus; test: Antibacterial activity against Staphylococcus aureus ATCC 25923 assessed as fold increase in MIC pretreated with Na-cl followed by compound addition and measured after 2 hrs by broth microdilution method; assay type: functional
[8] = system: Escherichia coli; test: Antibacterial activity against Escherichia coli ATCC 25922 incubated for 18 to 24 hrs by broth microdilution method; assay type: functional; conditions: time 18-24 hrs
[9] = system: Klebsiella pneumoniae; test: Antibacterial activity against Klebsiella pneumoniae ATCC 700603 incubated for 18 to 24 hrs by broth microdilution method; assay type: functional; conditions: time 18-24 hrs
[10] = system: Staphylococcus aureus; test: Antibacterial activity against Staphylococcus aureus ATCC 25923 incubated for 18 to 24 hrs by broth microdilution method; assay type: functional; conditions: time 18-24 hrs
[11] = system: Enterococcus faecalis; test: Antibacterial activity against Enterococcus faecalis ATCC 29212 incubated for 18 to 24 hrs by broth microdilution method; assay type: functional; conditions: time 18-24 hrs
[12] = system: Staphylococcus aureus; test: Antibacterial activity against Staphylococcus aureus ATCC 25923 at sub-MIC measured after 4 days; assay type: functional, organism-based; conditions: time 4.0 day
[13] = system: Pseudomonas aeruginosa; test: Antibacterial activity against Pseudomonas aeruginosa ATCC 27853 at sub-MIC measured after 2 days; assay type: functional, organism-based; conditions: time 2.0 day
[14] = Toxicity in male BALB/c mouse assessed as cellular infiltration in lung at 19.45 mg/kg, ip administered as single dose by H and E staining based analysis; assay type: organism-based; conditions: in vivo
[15] = Toxicity in male BALB/c mouse assessed as hemorrhage in liver at 19.45 mg/kg, ip administered as single dose by H and E staining based analysis; assay type: organism-based; conditions: in vivo
[16] = Toxicity in male BALB/c mouse assessed as hemorrhage in lung at 19.45 mg/kg, ip administered as single dose by H and E staining based analysis; assay type: organism-based; conditions: in vivo
[17] = Toxicity in male BALB/c mouse assessed as lethal dose administered as ip measured after 7 days; assay type: organism-based; conditions: in vivo, ip, 168 h, time 7 day
[18] = Toxicity in male BALB/c mouse assessed as cellular infiltration in spleen at 19.45 mg/kg, ip administered as single dose by H and E staining based analysis; assay type: organism-based; conditions: in vivo
[19] = Toxicity in male BALB/c mouse assessed as cellular infiltration in liver at 19.45 mg/kg, ip administered as single dose by H and E staining based analysis; assay type: organism-based; conditions: in vivo
[20] = Toxicity in male BALB/c mouse assessed as hemorrhage in spleen at 19.45 mg/kg, ip administered as single dose by H and E staining based analysis; assay type: organism-based; conditions: in vivo
[21] = Toxicity in male BALB/c mouse assessed as cellular infiltration in kidney at 19.45 mg/kg, ip administered as single dose by H and E staining based analysis; assay type: organism-based; conditions: in vivo
[22] = Toxicity in male BALB/c mouse assessed as massive edema in kidney at 19.45 mg/kg, ip administered as single dose by H and E staining based analysis; assay type: organism-based; conditions: in vivo
[23] = Toxicity in male BALB/c mouse assessed as survival rate at 15 mg/kg, ip measured after 7 days relative to control; assay type: organism-based; conditions: in vivo, 168 h, time 7 day
[24] = Toxicity in male BALB/c mouse assessed as survival rate at 23.8 to 30 mg/kg, ip measured within 30 mins relative to control; assay type: organism-based; conditions: in vivo, 0.5 h, dose 23.8-30 mg/kg
[25] = Toxicity in male BALB/c mouse assessed as hemorrhage in kidney at 19.45 mg/kg, ip administered as single dose by H and E staining based analysis; assay type: organism-based; conditions: in vivo
[26] = Toxicity in male BALB/c mouse assessed as cell necrosis in liver at 19.45 mg/kg, ip administered as single dose by H and E staining based analysis; assay type: organism-based; conditions: in vivo
[27] = Toxicity in male BALB/c mouse assessed as alveolar shrinkage in lung at 19.45 mg/kg, ip administered as single dose by H and E staining based analysis; assay type: organism-based; conditions: in vivo
[28] = system: Pseudomonas aeruginosa; test: Antibacterial activity against Pseudomonas aeruginosa ATCC 27853 at sub-MIC measured after 3 days; assay type: functional, organism-based; conditions: time 3.0 day
[29] = system: Staphylococcus aureus; test: Antibacterial activity against Staphylococcus aureus ATCC 25923 at sub-MIC measured after 5 days; assay type: functional, organism-based; conditions: time 5.0 day

Row | Molecule | MHC [1] | MIC [3] | MIC [4] | MIC [5] | MIC [6] | MIC [8] | MIC [9] | MIC [10] | MIC [11] | further results
1 | CCC(C)CCC(=O)N[C@H](CC(N)=O)C(=O)N[C@H](Cc1c[nH]c2ccccc12)C(=O)N[C@H](Cc1c[nH]c2ccccc12)C(=O)N[C@H](CCCN)C(=O)N[C@@H](CCCN)C(=O)NCC(=O)N[C@H](CCCN)C(=O)N[C@@H](Cc1c[nH]c2ccccc12)C(=O)N[C@@H]1C(=O)N[C@@H]([C@@H](C)CC)C(=O)NCC(=O)N[C@@H](CO)C(=O)O[C@@H]1C (mixture of isomers) | 64 µM | 32 µM | 32 µM | 4 µM | 16 µM | 8 µM | 8 µM | 32 µM | 128 µM | fold change (FC) [2]: 4; fold change (FC) [7]: 4
2 | CO[C@H]1/C=C/O[C@@]2(C)Oc3c(C)c(O)c4c(O)c(c(/C=N/N5CCN(C)CC5)c(O)c4c3C2=O)NC(=O)/C(C)=C\C=C\[C@H](C)[C@H](O)[C@@H](C)[C@@H](O)[C@@H](C)[C@H](OC(C)=O)[C@@H]1C | – | – | – | – | – | – | – | – | – | Activity [12]: inactive; Activity [13]: inactive
3 | POLYMYXIN B | 128 µM | – | – | – | – | – | – | – | – | Activity [14]: Toxic; Activity [15]: Toxic; Activity [16]: Toxic; LD50 [17]: 19.45 mg/kg; Activity [18]: Toxic; Activity [19]: Toxic; Activity [20]: Toxic; Activity [21]: Toxic; Activity [22]: Toxic; Survival [23]: 100%; Survival [24]: 0%; Activity [25]: Toxic; Activity [26]: Toxic; Activity [27]: Toxic
4 | CCC(C)CCC(=O)N[C@H](CC(N)=O)C(=O)N[C@H](Cc1ccc(O)cc1)C(=O)N[C@H](Cc1c[nH]c2ccccc12)C(=O)N[C@H](CCCNC(=N)N)C(=O)N[C@@H](CCCNC(=N)N)C(=O)NCC(=O)N[C@H](CCCNC(=N)N)C(=O)N[C@@H](Cc1c[nH]c2ccccc12)C(=O)N[C@@H]1C(=O)N[C@@H]([C@@H](C)CC)C(=O)NCC(=O)N[C@@H](CO)C(=O)O[C@@H]1C (mixture of isomers) | 128 µM | 8 µM | 2 µM | 4 µM | 16 µM | 4 µM | 4 µM | 64 µM | 64 µM | –
5 | CCC(C)CCC(=O)N[C@H](CC(N)=O)C(=O)N[C@H](Cc1ccc(C(C)(C)C)cc1)C(=O)N[C@H](Cc1c[nH]c2ccccc12)C(=O)N[C@H](CCCN)C(=O)N[C@@H](CCCN)C(=O)NCC(=O)N[C@H](CCCN)C(=O)N[C@@H](Cc1c[nH]c2ccccc12)C(=O)N[C@@H]1C(=O)N[C@@H]([C@@H](C)CC)C(=O)NCC(=O)N[C@@H](CO)C(=O)O[C@@H]1C (mixture of isomers) | 16 µM | 8 µM | 16 µM | 8 µM | 8 µM | 16 µM | 16 µM | 16 µM | 32 µM | –
6 | GENTAMICIN | – | – | – | – | – | – | – | – | – | Activity [28]: inactive; Activity [29]: inactive
7 | CCC(C)CCC(=O)N[C@H](CC(N)=O)C(=O)N[C@H](Cc1ccc(N)cc1)C(=O)N[C@H](Cc1c[nH]c2ccccc12)C(=O)N[C@H](CCCN)C(=O)N[C@@H](CCCN)C(=O)NCC(=O)N[C@H](CCCN)C(=O)N[C@@H](Cc1c[nH]c2ccccc12)C(=O)N[C@@H]1C(=O)N[C@@H]([C@@H](C)CC)C(=O)NCC(=O)N[C@@H](CO)C(=O)O[C@@H]1C (mixture of isomers) | 128 µM | 32 µM | 64 µM | 4 µM | 16 µM | 8 µM | 16 µM | 128 µM | > 128 µM | –
8 | CCC(C)CCC(=O)N[C@H](CC(N)=O)C(=O)N[C@H](C)C(=O)N[C@H](Cc1c[nH]c2ccccc12)C(=O)N[C@H](CCCN)C(=O)N[C@@H](CCCN)C(=O)NCC(=O)N[C@H](CCCN)C(=O)N[C@@H](Cc1c[nH]c2ccccc12)C(=O)N[C@@H]1C(=O)N[C@@H]([C@@H](C)CC)C(=O)NCC(=O)N[C@@H](CO)C(=O)O[C@@H]1C (mixture of isomers) | 128 µM | 32 µM | 8 µM | 2 µM | 16 µM | 16 µM | 32 µM | > 128 µM | > 128 µM | –
9 | CCC(C)CCC(=O)N[C@H](CCCN)C(=O)N[C@H](Cc1ccc(O)cc1)C(=O)N[C@H](Cc1c[nH]c2ccccc12)C(=O)N[C@H](CCCN)C(=O)N[C@@H](CCCN)C(=O)N[C@@H](CCCN)C(=O)N[C@H](CCCN)C(=O)N[C@@H](Cc1c[nH]c2ccccc12)C(=O)N[C@@H]1C(=O)N[C@@H]([C@@H](C)CC)C(=O)NCC(=O)N[C@@H](CO)C(=O)O[C@@H]1C (stereo not given in full) | 128 µM | 16 µM (≈ 25.2 µg/mL) | 16 µM (≈ 25.2 µg/mL) | 1 µM (≈ 1.58 µg/mL) | 4 µM (≈ 6.31 µg/mL) | 8 µM (≈ 12.6 µg/mL) | 2 µM (≈ 3.15 µg/mL) | 32 µM (≈ 50.5 µg/mL) | > 128 µM | –
